Laboratory results as given in patent US20230158025A1 (UNIVERSITY OF UTAH RESEARCH FOUNDATION, priority 2020, published 2023).
Read-outs that look alike come from different tables or passages of the source.

Key:
[1] = biological target: T1, hGALK1m (Homo sapiens, UniProt P51570, E253A/K252A); assay: in vitro hGALK1 activity assay of the structure-based optimisation (Example 12, Tables 17-20); type: biochemical; details: for Emax: Tables 18-19, read-out: Max Response (%); for IC50: Tables 18-19 and text of Example 12
T1 construct: made in house; host or cells: E. coli HMS174
Procedure: In vitro hGALK1 activity assays were performed as previously described. Liu et al., Bioorg. Med. Chem. Lett. 25(3): 721-727 (2015), which is incorporated by reference herein for the specific teachings thereof. The biochemical assay was performed by coupling the activity of recombinant human or mouse GALK1 to the Kinase-Glo Plus luminescent ATP detection kit, using ATP depletion as a measure of GALK1 turnover. Specifically, three μL/well of ATP substrate solution (35 μM ATP) in assay buffer (20 mM HEPES pH 8.0, 5 mM MgCl2, 60 mM NaCl, 1 mM DTT, 0.01% BSA final concentration) was dispensed into 1536-well assay plates (Greiner, white solid-bottom medium-binding plates). Aliquots of compound (23 nL solubilized in DMSO) were transferred to the assay plates using a Kalypsys 1536-well pintool such that 11 concentrations with 1/3 dilutions ranging from 57.4 μM-0.97 nM are tested. One μL/well of GALK-galactose solution (5 nM GALK1, 100 μM galactose) in assay buffer was then added, yielding a final reaction volume of 4 μL/well. Following a 1-hour room temperature incubation, 4 μL of Kinase-Glo Plus detection reagent was added to provide an ATP-dependent luminescent readout (final assay volume: 8 μL/well). Luminescence was detected using a ViewLux plate reader (PerkinElmer) after a 10-minute incubation, using a 1 second exposure time and 2× binning.
The in vitro hGALK1 activity assay was performed as previously described. Liu et al., Bioorg. Med. Chem. Lett. 25(3): 721-727 (2015). For the measurement of cellular Gal-1P reduction, compounds at different concentrations were added to cultured patient fibroblast at 80% confluency. After incubating the compounds for 16 hours, 10 mM galactose was added to the culture. After another 4 hours, cells were washed with cold PBS buffer 3× and harvested for gal-1P measurement, according to the previously published method. Liu et al., Bioorg. Med. Chem. Lett. 25(3): 721-727 (2015).

[2] = biological target: recombinant human GALK1 (Homo sapiens, UniProt P51570); assay: hGALK1 biochemical activity assay (Kinase-Glo Plus, ATP depletion)
How it was run: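 Recombinant human or mouse GALK1 (5 nM, with 100 μM galactose, in the added enzyme solution) was run with ATP (35 μM in the substrate solution) in HEPES pH 8.0 buffer. Compounds were tested at 11 1/3-step concentrations from 57.4 μM to 0.97 nM. After 1 h at room temperature, remaining ATP was read by Kinase-Glo Plus luminescence.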

[3] = biological target: recombinant mouse GALK1 (Mus musculus, UniProt Q9R0N0); assay: mGALK1 biochemical activity assay (Kinase-Glo Plus, ATP depletion)
How it was run: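 Recombinant GALK1 (5 nM) with 100 μM galactose; GALK1 turnover read as ATP depletion by Kinase-Glo Plus luminescence. Reaction ran 1 h at room temperature before detection reagent was added.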

[4] = aqueous kinetic solubility
[5] = PAMPA permeability; details: for Papp: PAMPA, ADME P: PAMPA permeability (class), Tables 17-19, class probably colour-coded, colour lost
[6] = rat microsomal stability (RLM); details: for Metab. Stabil. (m): microsomal half-life; for half-life: rat, rat liver microsomes
[7] = recombinant human GALK1, Kinase-Glo Plus ATP depletion, read-out: hGALK
[8] = Tables 2-15, 35 μM ATP, 100 μM galactose, 1 h, bracketed figure after some values is undefined and not reported, read-out: mGALK IC50
[9] = recombinant mouse GALK1, Kinase-Glo Plus ATP depletion, read-out: mGALK
[10] = Tables 2-15, 35 μM ATP, 100 μM galactose, 1 h, bracketed figure after some values (e.g. −1.2) is undefined and not reported, read-out: hGALK IC50

Chain of recombinant mouse GALK1 (Q9R0N0 whole entry): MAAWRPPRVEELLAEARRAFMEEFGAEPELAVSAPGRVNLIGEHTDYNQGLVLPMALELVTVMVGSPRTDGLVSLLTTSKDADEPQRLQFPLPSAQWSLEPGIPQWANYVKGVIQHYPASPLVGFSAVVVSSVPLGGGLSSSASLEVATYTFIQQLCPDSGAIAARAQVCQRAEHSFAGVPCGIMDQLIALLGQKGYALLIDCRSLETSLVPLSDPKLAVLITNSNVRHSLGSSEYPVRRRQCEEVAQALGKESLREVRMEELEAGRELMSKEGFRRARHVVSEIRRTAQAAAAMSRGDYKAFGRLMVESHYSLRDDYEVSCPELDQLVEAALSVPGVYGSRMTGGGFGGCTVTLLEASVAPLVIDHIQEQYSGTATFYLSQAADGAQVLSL
T1 sequence (P51570 whole entry K252A/E253A): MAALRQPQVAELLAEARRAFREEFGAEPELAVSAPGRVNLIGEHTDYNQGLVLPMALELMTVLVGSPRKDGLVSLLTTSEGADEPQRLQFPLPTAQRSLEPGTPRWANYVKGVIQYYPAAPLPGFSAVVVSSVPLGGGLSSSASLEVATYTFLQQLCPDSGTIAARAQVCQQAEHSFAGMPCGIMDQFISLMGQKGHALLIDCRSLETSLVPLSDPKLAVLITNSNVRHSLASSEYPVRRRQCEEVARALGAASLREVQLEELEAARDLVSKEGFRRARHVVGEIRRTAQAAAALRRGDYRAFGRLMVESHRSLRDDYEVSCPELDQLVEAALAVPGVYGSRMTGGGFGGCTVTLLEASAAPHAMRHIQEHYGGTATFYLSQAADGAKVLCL
Chain of recombinant human GALK1 (P51570 whole entry): as the sequence (P51570 whole entry K252A/E253A) above, with A252K, A253E counted along it

Row | SMILES | Emax [1] [%] | IC50 [1] [µM] | IC50 [2, 7] [µM] | IC50 [3, 8] [µM] | IC50 [3, 9] [µM] | Sol. [4] [µg/mL] | Perm. (1 × 10^−6 cm/sec) [5] | Papp [5] [×10⁻⁶ cm/s] | Metab. Stabil. (m) [6] [m] | half-life [6] [min] | fold decrease of potency versus parent compound ([1]; loss of potency relative to the unsubstituted parent) [fold] | IC50 [2, 10] [µM] | change of potency versus parent compound (in words) [1]
1 | COc1ccc2oc(NC3=NC(c4ccccc4Cl)C(C(=O)Nc4cc(C(=O)O)ccn4)=C(C)N3)nc2c1 (stereo not drawn) [Compound 5, 2-(4-(2-chlorophenyl)-2-((5-methoxybenzo[d]oxazol-2-yl)amino)-6-methyl-1,4-dihydropyrimidine-5-carboxamido)isonicotinic acid] | 100 | 2 | 6.85 | 12.2 | 12.2 | >79 | <1 1 × 10^−6 cm/sec | < 10 | >30 | < 10 | – | – | –
2 | CC1=C(C(=O)Nc2cc(C(=O)O)ccn2)C(c2ccccc2Cl)N=C(Nc2nc3ccc(C)cc3o2)N1 (stereo not drawn) [Compound 6, 2-(4-(2-chlorophenyl)-6-methyl-2-((6-methylbenzo[d]oxazol-2-yl)amino)-1,4-dihydropyrimidine-5-carboxamido)isonicotinic acid] | 100 | 6.9 | – | 17.2 | 17.2 | 34.42 | <1 1 × 10^−6 cm/sec | < 10 | >30 | < 10 | ~7 | 5.44 | –
3 | CC1=C(C(=O)Nc2cc(C(=O)O)ccn2)C(c2ccccc2Cl)N=C(Nc2nc3cccc(F)c3o2)N1 (stereo not drawn) [Compound 10, 2-(4-(2-chlorophenyl)-2-((7-fluorobenzo[d]oxazol-2-yl)amino)-6-methyl-1,4-dihydropyrimidine-5-carboxamido)isonicotinic acid] | 100 | 1 | 1.72 | 8.63 | 8.63 | >77 | <1 1 × 10^−6 cm/sec | < 10 | >30 | < 10 | – | – | did not change the potency
4 | CC1=C(C(=O)Nc2cc(C(=O)O)ccn2)C(c2ccccc2Cl)N=C(Nc2nc3c(Cl)cccc3o2)N1 (stereo not drawn) [Compound 11, 2-(2-((4-chlorobenzo[d]oxazol-2-yl)amino)-4-(2-chlorophenyl)-6-methyl-1,4-dihydropyrimidine-5-carboxamido)isonicotinic acid] | 85 | 5.8 | – | 13.7 | 13.7 | <1 | <1.3 1 × 10^−6 cm/sec | < 10 | >30 | < 10 | – | 5.44 | –
5 | CC1=C(C(=O)Nc2cc(C(=O)O)ccn2)C(c2ccccc2Cl)N=C(Nc2nc3cc(N)ccc3o2)N1 (stereo not drawn) [Compound 12, 2-(2-((5-aminobenzo[d]oxazol-2-yl)amino)-4-(2-chlorophenyl)-6-methyl-1,4-dihydropyrimidine-5-carboxamido)isonicotinic acid] | 100 | 5.5 | – | 21.7 | 21.7 | >76 | – | < 10 | >30 | < 10 | – | 7.69 | –
